The text below walks through data of the NIST ThermoML archive (doi:10.1016/j.tca.2014.05.033).

Data set [1] can be described thus: refractive index (Na D-line) (dimensionless); mn = molality of the nth substance listed, in mol/kg. The following applies: 298.15 K, 101 kPa, Liquid, Standard Abbe refractometry.
Data set [2] in a line: mn = molality of the nth substance listed, in mol/kg. Conditions: 298.15 K, 101 kPa, Liquid, Vibrating tube method.
Data set [3] in a line: molar enthalpy of vaporization or sublimation. Conditions: 298.15 K; Crystal; DSC.

As a reminder, the refractive index is a measure of how strongly the sample bends light. A word on the mass density: it is the mass of a sample divided by its volume.

Several values for one entry are separate records, joined by “and”; a condition that tells them apart may be missing. Equal entries are not always repeated. Numbers after ± are expanded uncertainties.

For `c1ccccc1` [benzene] + C(#Cc1ccccc1)c1ccccc1, the refractive index in data set [1] (m2 = 0) amounted to 1.49734 ± 0.00031. For the same compound, the mass density in data set [2] (m2 = 0) came to 873.285 ± 0.28 kg/m3.

Take `c1ccc(-c2c3ccccc3c(-c3ccccc3)c3c(-c4ccccc4)c4ccccc4c(-c4ccccc4)c23)cc1` [5,6,11,12-tetraphenylnaphthacene]: in data set [3], the molar enthalpy was 51 ± 1.31 kcal/mol.

As to `c1ccc(-c2c3ccccc3c(-c3ccccc3)c3ccccc23)cc1` [9,10-diphenylanthracene] + c1ccccc1, the refractive index in data set [1] (m1 = 0.00012) came out at 1.49761 ± 0.00031; in data set [1] (m1 = 0.00016), 1.49763 ± 0.00031; in data set [1] (m1 = 0.00022), 1.49768 ± 0.00031; in data set [1] (m1 = 0.00028), 1.49773 ± 0.00031; in data set [1] (m1 = 0.0003) it was 1.49776 ± 0.00031. Moreover, the mass density in data set [2] (m1 = 0.00012) was determined as 873.64 ± 0.84 kg/m3; in data set [2] (m1 = 0.00016), 873.666 ± 0.93 kg/m3; in data set [2] (m1 = 0.00022), 873.731 ± 1.1 kg/m3; in data set [2] (m1 = 0.00028), 873.796 ± 1.1 kg/m3; in data set [2] (m1 = 0.0003), 873.822 ± 1.3 kg/m3.

Regarding `c1ccccc1` [benzene] + c1ccc(-c2c3ccccc3cc3ccccc23)cc1, in data set [1] (m2 = 0), the refractive index stood at 1.49758 ± 0.00031. The mass density in data set [2] (m2 = 0) came to 873.612 ± 0.69 kg/m3.

Consider `C(=C\c1ccccc1)/c1ccccc1` [(E)-1,2-diphenylethene], for which, in data set [3], the molar enthalpy worked out at 24.6 ± 0.669 kcal/mol.

For `c1ccc(-c2c3ccccc3cc3ccccc23)cc1` [9-phenylanthracene], the molar enthalpy in data set [3] turned out to be 30 ± 0.765 kcal/mol.

As for `c1ccccc1` [benzene] + c1ccc(-c2c(-c3ccccc3)c(-c3ccccc3)c3ccccc3c2-c2ccccc2)cc1, the refractive index in data set [1] (m2 = 0) is 1.49731 ± 0.00031. For the same compound, the mass density in data set [2] (m2 = 0) amounted to 873.277 ± 1.3 kg/m3.

Regarding `C(#Cc1ccccc1)c1ccccc1` [1,2-diphenylethyne], the molar enthalpy in data set [3] was found to be 22 ± 1.08 kcal/mol.

Regarding `C(#Cc1ccccc1)c1ccccc1` [1,2-diphenylethyne] + c1ccccc1, the refractive index in data set [1] (m1 = 0.00019) was 1.49738 ± 0.00031; in data set [1] (m1 = 0.00036), 1.49743 ± 0.00031; in data set [1] (m1 = 0.00042) it was 1.49747 ± 0.00031; in data set [1] (m1 = 0.00079) it was 1.49756 ± 0.00031. Also, the mass density in data set [2] (m1 = 0.00019) came out at 873.334 ± 0.34 kg/m3; in data set [2] (m1 = 0.00036), 873.403 ± 0.45 kg/m3; in data set [2] (m1 = 0.00042), 873.437 ± 0.58 kg/m3; in data set [2] (m1 = 0.00079), 873.534 ± 0.28 kg/m3.

On to `c1ccc(-c2cccc(-c3ccccc3)c2)cc1` [m-terphenyl], for which the molar enthalpy in data set [3] is 27.6 ± 0.621 kcal/mol.

For the compound `c1ccc(-c2c(-c3ccccc3)c(-c3ccccc3)c(-c3ccccc3)c(-c3ccccc3)c2-c2ccccc2)cc1` [hexaphenylbenzene], the molar enthalpy in data set [3] came out at 46.8 ± 1.41 kcal/mol.

With `c1cc2ccc3cccc4ccc(c1)c2c34` [pyrene], in data set [3], the molar enthalpy was 25.2 ± 0.789 kcal/mol.

In the case of `c1ccc2c(c1)-c1cccc3cccc-2c13` [fluoranthene], the molar enthalpy in data set [3] was 24.1 ± 0.669 kcal/mol.

Turning to `c1ccccc1` [benzene] + c1ccc(-c2cccc(-c3ccccc3)c2)cc1, the refractive index in data set [1] (m2 = 0) came to 1.49772 ± 0.00031. In addition, the mass density in data set [2] (m2 = 0) was 873.483 ± 0.54 kg/m3.

For `c1ccc(-c2c(-c3ccccc3)c(-c3ccccc3)c3ccccc3c2-c2ccccc2)cc1` [1,2,3,4-tetraphenylnaphthalene] + c1ccccc1, the refractive index in data set [1] (m1 = 0.0008) was 1.49737 ± 0.00031; in data set [1] (m1 = 0.0011), 1.4974 ± 0.00031; in data set [1] (m1 = 0.0017), 1.49744 ± 0.00031 and 1.49745 ± 0.00031; in data set [1] (m1 = 0.0022) it was 1.49748 ± 0.00031. Besides, the mass density was 873.38 ± 1.3 kg/m3 in data set [2] (m1 = 8e-05); 873.424 ± 1.2 kg/m3 in data set [2] (m1 = 0.00011); 873.488 ± 1.2 kg/m3 and 873.494 ± 1.2 kg/m3 in data set [2] (m1 = 0.00017); 873.551 ± 1.3 kg/m3 in data set [2] (m1 = 0.00022).

With `c1ccc(-c2c(-c3ccccc3)c(-c3ccccc3)c3ccccc3c2-c2ccccc2)cc1` [1,2,3,4-tetraphenylnaphthalene], the molar enthalpy in data set [3] was determined as 39.4 ± 1.48 kcal/mol.

With `c1ccccc1` [benzene] + c1ccc(-c2cccc(-c3ccccc3)c2-c2ccccc2)cc1, the refractive index in data set [1] (m2 = 0) came out at 1.49778 ± 0.00031. In addition, the mass density in data set [2] (m2 = 0) is reported as 873.584 ± 0.76 kg/m3.

In the case of `c1ccc(-c2ccc(-c3ccccc3)cc2)cc1` [p-terphenyl], the molar enthalpy in data set [3] came to 29 ± 1 kcal/mol.

Take `c1ccc2c(c1)ccc1cc3c(ccc4ccccc43)cc12` [dibenz[a,h]anthracene]: in data set [3], the molar enthalpy was found to be 35.4 ± 1.12 kcal/mol.

As to `c1ccc(-c2cccc(-c3ccccc3)c2-c2ccccc2)cc1` [1,2,3-triphenylbenzene] + c1ccccc1, the refractive index in data set [1] (m1 = 0.00038) amounted to 1.49797 ± 0.00031; in data set [1] (m1 = 0.00061), 1.49809 ± 0.00031; in data set [1] (m1 = 0.0007) it was 1.49814 ± 0.00031; in data set [1] (m1 = 0.0008), 1.49819 ± 0.00031. The mass density amounted to 873.87 ± 0.78 kg/m3 in data set [2] (m1 = 0.00038), 874.054 ± 0.83 kg/m3 in data set [2] (m1 = 0.00061), 874.135 ± 0.78 kg/m3 in data set [2] (m1 = 0.0007) and 874.201 ± 0.67 kg/m3 in data set [2] (m1 = 0.0008).

With `c1ccc(-c2cccc(-c3ccccc3)c2-c2ccccc2)cc1` [1,2,3-triphenylbenzene], in data set [3], the molar enthalpy came out at 33.1 ± 1 kcal/mol.

On to `c1ccccc1` [benzene] + c1ccc(-c2c3ccccc3c(-c3ccccc3)c3ccccc23)cc1, for which the refractive index in data set [1] (m2 = 0) is 1.49752 ± 0.00031. Further, the mass density in data set [2] (m2 = 0) came to 873.534 ± 0.89 kg/m3.

Take `c1ccc(-c2c3ccccc3c(-c3ccccc3)c3ccccc23)cc1` [9,10-diphenylanthracene]: the molar enthalpy in data set [3] came out at 36.5 ± 1.27 kcal/mol.

As for `c1ccc(-c2c3ccccc3cc3ccccc23)cc1` [9-phenylanthracene] + c1ccccc1, the refractive index in data set [1] (m1 = 0.00011) is reported as 1.49764 ± 0.00031; in data set [1] (m1 = 0.00032) it was 1.49776 ± 0.00031; in data set [1] (m1 = 0.00038) it was 1.4978 ± 0.00031; in data set [1] (m1 = 0.0008), 1.49794 ± 0.00031. Further, the mass density stood at 873.687 ± 0.71 kg/m3 in data set [2] (m1 = 0.00011), 873.837 ± 0.75 kg/m3 in data set [2] (m1 = 0.00032), 873.891 ± 0.91 kg/m3 in data set [2] (m1 = 0.00038) and 874.047 ± 0.39 kg/m3 in data set [2] (m1 = 0.0008).

With `c1ccc2cc3c(ccc4ccccc43)cc2c1` [benz[a]anthracene], in data set [3], the molar enthalpy was 27.8 ± 0.741 kcal/mol.

Turning to `c1ccc(-c2cccc(-c3ccccc3)c2)cc1` [m-terphenyl] + c1ccccc1, the refractive index in data set [1] (m1 = 0.00482) came to 1.49966 ± 0.00031; in data set [1] (m1 = 0.00941) it was 1.50149 ± 0.00031; in data set [1] (m1 = 0.0142) it was 1.50336 ± 0.00031; in data set [1] (m1 = 0.0215) it was 1.50621 ± 0.00031. The mass density is listed as 876.044 ± 0.54 kg/m3 in data set [2] (m1 = 0.00482), 878.445 ± 0.53 kg/m3 in data set [2] (m1 = 0.00941), 880.914 ± 0.52 kg/m3 in data set [2] (m1 = 0.0142) and 884.612 ± 0.52 kg/m3 in data set [2] (m1 = 0.0215).
